# Source: US20240150423A1, “GLP-1 ANALOGUE-MODIFIED DIMERS WITH DIFFERENT CONFIGURATIONS, PREPARATION METHOD THEREOF, AND APPLICATION THEREOF IN TREATMENT OF TYPE II DIABETES” (Nanjing Finepeptide Biopharmaceutical Co.,Ltd, priority 2019, published 2024)
# Non-standard residues stand in square brackets, D forms with d. No end group written: not given here. bAib = not defined here
# Columns and labels:
# Normal Kunming (KM) mice [1] = test: single oral glucose tolerance test (sOGTT); format: in vivo; conditions: after a single administration and oral glucose, tail blood at 0-120 min
# Excerpt: • 1. Methods: Normal Kunming (KM) mice (purchased from Guangdong Animal Center) were used for oral glucose tolerance test (OGTT) to obtain the hypoglycemic activity and durability of drug. […] The blood glucose meter and blood glucose test paper were from Bayer […]. The average blood glucose of each group was used as an evaluation standard: When the average blood glucose of experimental group was higher than that of the NaCl control group for two times, the measurement stopped and the hypoglycemic period compared to the blank control group was the effective duration. • 2. Results • 2.1 single OGTTs: after a single administration, the mice were orally administered glucose once and measured the blood glucose from the tail blood at 0, 10, 20, 40, 60 and 120 min. […] The duration of each monomer group was about 1⁄2-1⁄4 of the duration of its corresponding dimer group. […] Therefore, the 2G3 peptide was selected for treating type II diabetes (T2D) in vivo and subsequent experiments.
# Normal Kunming (KM) mice [2] = test: multiple OGTT (mOGTT): hypoglycemic duration after a single administration; format: in vivo; conditions: single injection at the same dose (1.126 nmol), subcutaneous; for Hypoglycemic (day) / Hypoglycemic: monomeric peptides
# Summary of the method: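 Normal Kunming mice given a single dose, then oral glucose challenges; tail-blood glucose read by meter at 0, 10, 20, 40, 60 and 120 min. Duration scored as hypoglycemic period until group mean glucose exceeded the NaCl control twice.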
# [3] = trial for 26 weeks; cited from earlier work
# [4] = T2D model treatment: body weight and organ weights; format: in vivo, C57B16/J mice; conditions: 2G1 study, 35 days
# Procedure: C57B16/J mice were placed in an SPF-level environment with a standard diet. All experimental operations were performed in accordance with the guidelines of the ethics and uses of experimental animals. […] The NaCl-PB group served as blank control and the model control group served as the T2D model control. They were injected with NaCl-PB solution. The T2D model group was fed with 60 kcal % high-fat diet (D12492, Changzhou SYSE Bio-tech. Co., Ltd., China) until the end of the experiment. Meanwhile the blank control group maintained standard diet. […] These groups were subjected to a 35-day treatment study on the basis of the high-fat diet. • 1. […] The monomeric peptides were dissolved into a saline solution (pH 6.5) for injection. • 2. […] The models were measured blood glucose at the tail and weight weighted every morning at 9 am. […] In the T2D treatment study, all T2D model mice were injected subcutaneously at the back hip in 100 μl per mouse within 30 min. The blood glucose of the experimental mice was measured every five days and the whole measurement was completed within 40 min. […] No. 8-9695-03-201-1, Novo Nordisk company, Switzerland) until the end of the 35-day experiment. • 3.
# [5] = clinic trial for 24 weeks, once a day; cited from earlier work
# [6] = high dose 3.378 nmol/100 μL once a day
# [7] = low dose 0.375 nmol/100 μL once a day
# [8] = medium dose and Liraglutide group 1.126 nmol/100 μL once a day
compound,measurement,setting,value
His-Ala-Glu-Gly-Thr-Phe-Thr-Ser-Asp-Val-Ser-Cys-Tyr-Leu-Glu-Gly-Gln-Ala-Ala-Lys[N-ϵ-(N-α-Palmitoyl-L-γ-glutamyl)]-Glu-Phe-Ile-Ala-Trp-Leu-Val-Arg-Gly-Arg-Gly-OH (HAEGTFTSDVSCYLEGQAAXEFIAWLVRGRG; palmitoyl-γ-glutamyl on Lys; C-terminal acid; Sequence is synthesized; (20)..(20) Xaa is 26Lys[N-e-(N-a-palmitoyl-L-g-glutamyl)]; (31)..(31) C-terminal) [G3 series 20],glucose peak in single OGTT,Normal Kunming (KM) mice [1],no blood glucose peak appeared
same,Hypoglycemic (day),Normal Kunming (KM) mice [2],4 (G3 peptide) day
Dulaglutide,body weight reduction,[3],2.9 kg
CCCCCCCCCCCCCCCC(=O)N[C@@H](CCC(=O)NCCCC[C@H](NC(=O)[C@H](C)NC(=O)[C@H](C)NC(=O)[C@H](CCC(N)=O)NC(=O)CNC(=O)[C@H](CCC(=O)O)NC(=O)[C@H](CC(C)C)NC(=O)[C@H](Cc1ccc(O)cc1)NC(=O)[C@H](CO)NC(=O)[C@H](CO)NC(=O)[C@@H](NC(=O)[C@H](CC(=O)O)NC(=O)[C@H](CO)NC(=O)[C@@H](NC(=O)[C@H](Cc1ccccc1)NC(=O)[C@@H](NC(=O)CNC(=O)[C@H](CCC(=O)O)NC(=O)[C@H](C)NC(=O)[C@@H](N)Cc1c[nH]cn1)[C@@H](C)O)[C@@H](C)O)C(C)C)C(=O)N[C@@H](CCC(=O)O)C(=O)N[C@@H](Cc1ccccc1)C(=O)N[C@H](C(=O)N[C@@H](C)C(=O)N[C@@H](Cc1c[nH]c2ccccc12)C(=O)N[C@@H](CC(C)C)C(=O)N[C@H](C(=O)N[C@@H](CCCNC(=N)N)C(=O)NCC(=O)N[C@@H](CCCNC(=N)N)C(=O)NCC(=O)N[C@@H](CSSC[C@H](NC(=O)CNC(=O)[C@H](CCCNC(=N)N)NC(=O)CNC(=O)[C@H](CCCNC(=N)N)NC(=O)[C@@H](NC(=O)[C@H](CC(C)C)NC(=O)[C@H](Cc1c[nH]c2ccccc12)NC(=O)[C@H](C)NC(=O)[C@@H](NC(=O)[C@H](Cc1ccccc1)NC(=O)[C@H](CCC(=O)O)NC(=O)[C@H](CCCCNC(=O)CC[C@H](NC(=O)CCCCCCCCCCCCCCC)C(=O)O)NC(=O)[C@H](C)NC(=O)[C@H](C)NC(=O)[C@H](CCC(N)=O)NC(=O)CNC(=O)[C@H](CCC(=O)O)NC(=O)[C@H](CC(C)C)NC(=O)[C@H](Cc1ccc(O)cc1)NC(=O)[C@H](CO)NC(=O)[C@H](CO)NC(=O)[C@@H](NC(=O)[C@H](CC(=O)O)NC(=O)[C@H](CO)NC(=O)[C@@H](NC(=O)[C@H](Cc1ccccc1)NC(=O)[C@@H](NC(=O)CNC(=O)[C@H](CCC(=O)O)NC(=O)[C@H](C)NC(=O)[C@@H](N)Cc1c[nH]cn1)[C@@H](C)O)[C@@H](C)O)C(C)C)[C@@H](C)CC)C(C)C)C(=O)O)C(=O)O)C(C)C)[C@@H](C)CC)C(=O)O [2G1],"Weight of organs, Heart",[4]; [6],0.121 ± 0.011a** g
same,"Weight of organs, Left kidney",[4]; [6],0.166 ± 0.040 g
same,"Weight of organs, Left testis",[4]; [6],0.086 ± 0.017 e* g
same,"Weight of organs, Liver",[4]; [6],1.293 ± 0.273 c* g
same,"Weight of organs, Lung",[4]; [6],0.144 ± 0.019 g
same,"Weight of organs, Pancreas",[4]; [6],0.145 ± 0.032 c* g
same,"Weight of organs, Right kidney",[4]; [6],0.175 ± 0.063 g
same,"Weight of organs, Right testis",[4]; [6],0.096 ± 0.011 g
same,"Weight of organs, Spleen",[4]; [6],0.095 ± 0.028 c* g
same,"Weight of organs, adipose tissue",[4]; [6],1.311 ± 0.629 c* g
same,"Weight of organs, Heart",[4]; [7],0.128 ± 0.023 g
same,"Weight of organs, Left kidney",[4]; [7],0.156 ± 0.021 g
same,"Weight of organs, Left testis",[4]; [7],0.094 ± 0.037 g
same,"Weight of organs, Liver",[4]; [7],1.290 ± 0.163 a*c** g
same,"Weight of organs, Lung",[4]; [7],0.146 ± 0.010 g
same,"Weight of organs, Pancreas",[4]; [7],0.129 ± 0.2a**c*** g
same,"Weight of organs, Right kidney",[4]; [7],0.147 ± 0.018 g
same,"Weight of organs, Right testis",[4]; [7],0.100 ± 0.021 b* g
same,"Weight of organs, Spleen",[4]; [7],0.107 ± 0.037 c* g
same,"Weight of organs, adipose tissue",[4]; [7],1.202 ± 0.406 c** g
same,"Weight of organs, Heart",[4]; [8],0.114 ± 0.010 a** g
same,"Weight of organs, Left kidney",[4]; [8],0.157 ± 0.030 g
same,"Weight of organs, Left testis",[4]; [8],0.100 ± 0.006 b** g
same,"Weight of organs, Liver",[4]; [8],1.211 ± 0.114 c** g
same,"Weight of organs, Lung",[4]; [8],0.139 ± 0.020 g
same,"Weight of organs, Pancreas",[4]; [8],0.155 ± 0.033 c*d* g
same,"Weight of organs, Right kidney",[4]; [8],0.139 ± 0.029 g
same,"Weight of organs, Right testis",[4]; [8],0.095 ± 0.011 g
same,"Weight of organs, Spleen",[4]; [8],0.101 ± 0.026 c* g
same,"Weight of organs, adipose tissue",[4]; [8],1.263 ± 0.276 c*** g
Albiglutide,body weight reduction,[3],0.6 kg
Lixisenatide,incidence of side reaction,[5],2.5%
same,symptomatic hypoglycemia rate,[5],3.4%
His-Ala-Glu-Gly-Thr-Phe-Thr-Ser-Asp-Val-Ser-Cys--Tyr-Leu-Glu-Gly-Gln-Ala-Ala-Lys[N-ϵ-(N-α-oleoyl-L-γ-glutamyl)]-Glu-Phe-Ile-Ala-Trp-Leu-Val-Arg-Gly-Arg-Gly-NH2 (HAEGTFTSDVSCYLEGQAAXEFIAWLVRGRG; oleoyl-γ-glutamyl on Lys; C-terminal amide; Sequence is synthesized; (20)..(20) Xaa is 26Lys[N-e-(N-a-oleoyl-L-g-glutamyl)]; (31)..(31) N-terminal) [G3 series 23],Hypoglycemic,Normal Kunming (KM) mice [2],7 days
His-Ala-Glu-Gly-Thr-Phe-Thr-Ser-Asp-Val-Ser-Ser-Tyr-Leu-Glu-Gly-Gln-Ala-Ala-Lys[N-ϵ-(N-α-Palmitoyl-γ-glutamyl)]-Glu-Phe-Ile-Ala-Trp-Leu-Val-Arg-Gly-Arg-Gly-Cys-OH (HAEGTFTSDVSSYLEGQAAXEFIAWLVRGRGC; palmitoyl-γ-glutamyl on Lys; C-terminal acid; Sequence is synthesized; (20)..(20) Xaa is 26Lys[N-e-(N-a-Palmitoyl-g-glutamyl)]; (32)..(32) C-terminal) [G1],Hypoglycemic (day),Normal Kunming (KM) mice [2],No hypoglycemic
2G2 series 9: disulfide-linked homodimer of monomer SEQ ID NO: 9 (HAEGTFTSDVCSYLEGQAAXEFIAWLVRGRG; disulfide-linked homodimer; Sequence is synthesized; (20)..(20) Xaa is 26Lys[N-e-(N-a-oleoyl-L-g-glutamyl)]; (31)..(1) C-terminal),Hypoglycemic duration,Normal Kunming (KM) mice [2],5 days
His-Ala-Glu-Gly-Thr-Phe-Thr-Ser-Asp-Val-Cys-Ser-Tyr-Leu-Glu-Gly-Gln-Ala-Ala-Lys[N-ϵ-(N-α-Palmitoyl-L-γ-glutamyl)]-Glu-Phe-Ile-Ala-Trp-Leu-Val-Arg-Gly-Arg-Gly-OH (HAEGTFTSDVCSYLEGQAAXEFIAWLVRGRG; palmitoyl-γ-glutamyl on Lys; C-terminal acid; Sequence is synthesized; (20)..(20) Xaa is Xaa is 26Lys[N-e-(N-a-Palmitoyl-g-glutamyl)]; (31)..(31) C-terminal) [G2 series 7],glucose peak in single OGTT,Normal Kunming (KM) mice [1],no blood glucose peak appeared
His-aAib-Glu-Gly-Thr-Phe-Thr-Ser-Asp-Val-Cys-Ser-Tyr-Leu-Glu-Gly-Gln-Ala-Ala-Lys[N-ϵ-(N-α-Palmitoyl-γ-glutamyl)]-Glu-Phe-Ile-Ala-Trp-Leu-Val-Arg-Gly-Arg-Gly-OH (HXEGTFTSDVCSYLEGQAAXEFIAWLVRGRG; αAib; palmitoyl-γ-glutamyl on Lys; C-terminal acid; Sequence is synthesized; (2)..(2) Xaa is aAib; (20)..(20) Xaa is 26Lys[N-e-(N-a-Palmitoyl-g-glutamyl)]; (31)..(31) C-terminal) [G2 series 11],Hypoglycemic,Normal Kunming (KM) mice [2],4 days
His-βAib-Glu-Gly-Thr-Phe-Thr-Ser-Asp-Val-Ser-Cys-Tyr-Leu-Glu-Gly-Gln-Ala-Ala-Lys[N-ϵ-(N-α-oleoyl-L-γ-glutamyl)]-Glu-Phe-Ile-Ala-Trp-Leu-Val-Arg-Gly-Arg-Gly-NH2 (HXEGTFTSDVSCYLEGQAAXEFIAWLVRGRG; not fully specified; beta-Aib; oleoyl-gamma-Glu on Lys; C-terminal amide; Sequence is synthesized; (2)..(2) Xaa is bAib; (20)..(20) Xaa is 26Lys[N-e-(N-a-oleoyl-L-g-glutamyl)]; (31)..(31) N-terminal) [G6 series 49],Hypoglycemic,Normal Kunming (KM) mice [2],5 days
"2G7 series 54: disulfide-linked homodimer of monomer SEQ ID NO: 54 (H[bAib]EGTFTSDVSCYLEGQAAKEFIAWLVR[bAib]R-NH2; reading uncertain; also: disulfide-linked homodimer, disulfide at 12, other end not in the chain, printed as His-βAib-Glu-Gly-Thr-Phe-Thr-Ser-Asp-Val-Ser-Cys-Tyr-Leu-Glu-Gly-Gln-Ala-Ala-Lys-Glu-Phe-Ile-Ala-Trp-Leu-Val-Arg-βAib-Arg-NH2)",Hypoglycemic duration,Normal Kunming (KM) mice [2],5 days
